These results are taken from patent publication US12570673B2, “c-Myc protein inhibitor, and preparation method therefor and use thereof” (SUZHOU KINTOR PHARMACEUTICALS, INC., priority 2019, dated 2026).

For one assay, the system named is HL60 cells. Kind of assay: Anti-cancer activity test, MTT, HL60 cells. It counts as cell-based. The note with it: Homo sapiens, HL-60, culturing for 72 hours. How it is done:
(§1) Cell culture medium: Roswell medium RPMI-1640 (+L-glutamine) was added with 10% fetal bovine serum, with 100 units penicillin and 100 μg streptomycin per ml.
(§2) Cell culture conditions: 5% CO2, 95% humidity, cultured at 37° C. constant temperature.
(§3) 2. Cell Inoculation, Drugs Dosing and Culture.
(§4) Logarithmic growth phase HL-60, human chronic myeloid leukemia cells (K562), human esophageal squamous cell carcinoma cells (KYSE510), human large cell lung cancer cells (H460) were inoculated into 96-well cell culture plates, 2×10^4 cells per well. Different concentrations of active compounds (dissolved in dimethyl sulfoxide (DMSO) stock solution) were added, so that the final concentration of DMSO was 0.2%, and the control group was DMSO. Each group was repeated three times.
(§5) After culturing for 72 hours, 20 µL of thiazolyl blue (MTT) (5 mg/ml, ready for use, dissolved in 1×PBS for cell culture) was added to each well, and incubated at 37° C. for 3 hours.
(§6) The 96-well cell culture plates were centrifuged at 1000 rpm for 10 minutes. The supernatant was discarded; 200 μL of DMSO was added to each well and the plate was shaken for 5 minutes.
(§7) The absorbance of each well was detected at 570 nm wavelength with a microplate reader, and the IC50 of the compounds was calculated.

Assay [1] addresses c-Myc370-412-biotin peptide (Homo sapiens (Human), UniProt P01106). Kind of assay: SPR binding affinity on c-Myc protein. The note with it: c-Myc370-412-biotin peptide immobilized, 1.00×PBS-P buffer (5% DMSO). How it is done:
1. Experiment Preparation
10×PBS-P was diluted into 1.05×PBS-P buffer solution for later use. The c-Myc370-412-biotin peptide was dissolved in chromatographic pure DMSO to prepare a 1 mM stock solution. The molecules were dissolved in chromatographic pure DMSO to prepare a 10 mM stock solution. Part of 1.05×PBS-P buffer was added to chromatographic pure DMSO to prepare 1.00×PBS-P buffer (5% DMSO, ready for use).
The highest solubility of each small molecule in the 1.00×PBS-P buffer (5% DMSO) system was tested respectively. This solubility was used as the highest concentration tested for small molecule activity.
2. Protein Immobilization
The c-Myc370-412-biotin peptide stock solution was added to 1.05×PBS-P buffer to prepare a 50 μM solution, and then diluted with 1.00×PBS-P buffer (5% DMSO) to […] for protein immobilization.
After washing the sample channel and reference channel of the chip with 1.00×PBS-P buffer (5% DMSO), an automatic mode was used to immobilize the protein in the sample channel. The target amount of the immobilized protein was 500RU. The immobilization was successful. The buffer was used continuously to flush until equilibrium.
3. Small Molecule Activity Test.
Buffer was used to prepare different concentrations of small molecule compounds for sample testing. The system was 1.00×PBS-P buffer (5% DMSO). The difference was detected between the response of small molecules flowing through the sample channel and the reference channel.
The experimental conditions were a flow rate of 30 μL/min, binding time of 120 seconds, and dissociation time of 240 seconds. After each binding and dissociation test, 50% DMSO was used to flush the tubing, and 10 mM glycine-HCl buffer (pH 2.1) was used to flush the surface of the chip to wash away the remaining compound molecules.

Assay [2] deals with human large cell lung cancer cells (H460). Briefly: Anti-cancer activity test, MTT, H460 cells. The assay is classed as cell-based. The note with it: NCI-H460, culturing for 72 hours. How it is done: as §1, §2, §3, §4, §5, §6, §7
For assay [3], the system named is human esophageal squamous cell carcinoma cells (KYSE510). Kind of assay: Anti-cancer activity test, MTT, KYSE510 cells. It counts as cell-based. The settings on record: KYSE-510, culturing for 72 hours. How it is done: as §1, §2, §3, §4, §5, §6, §7
In assay [4] the test system is human chronic myeloid leukemia cells (K562). Kind of assay: Anti-cancer activity test, MTT, K562 cells. The settings on record: culturing for 72 hours. It counts as cell-based. How it is done:
as §1, §2, §3, §4, §5, §6, §7

The next assay addresses c-Myc and Max (Homo sapiens (Human), UniProt P01106). Kind of assay: Competition for the binding of c-Myc and Max.
The target in a further assay is c-Myc protein (Homo sapiens (Human), UniProt P01106). Kind of assay: Degradation of c-Myc protein.
Chain of c-Myc protein (P01106 whole entry): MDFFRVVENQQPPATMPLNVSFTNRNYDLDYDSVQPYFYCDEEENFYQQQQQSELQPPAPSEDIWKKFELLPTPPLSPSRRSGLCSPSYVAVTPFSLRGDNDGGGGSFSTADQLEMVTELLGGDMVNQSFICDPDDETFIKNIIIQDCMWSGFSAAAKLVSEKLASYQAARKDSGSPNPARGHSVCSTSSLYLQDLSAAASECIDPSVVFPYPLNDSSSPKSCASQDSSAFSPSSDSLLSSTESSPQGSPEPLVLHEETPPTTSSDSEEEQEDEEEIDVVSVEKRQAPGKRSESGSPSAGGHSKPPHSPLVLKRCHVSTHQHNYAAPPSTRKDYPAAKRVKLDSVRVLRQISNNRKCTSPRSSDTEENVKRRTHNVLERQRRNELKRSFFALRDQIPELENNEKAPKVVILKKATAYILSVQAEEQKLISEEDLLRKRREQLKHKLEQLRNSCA
The test system of assay [5] is tumor cells with high expression of c-Myc. Briefly: Inhibition of tumor cells with high expression of c-Myc. The assay is classed as cell-based.
The target in assay [6] is c-Myc peptide LE40 (S373A) (Homo sapiens, UniProt P01106, S373A). Kind of assay: Single-cycle binding kinetics with c-Myc peptide LE40 (S373A).
The next assay concerns the target c-Myc peptide LE40 (Homo sapiens, UniProt P01106). Briefly: Single-cycle binding kinetics with c-Myc peptide LE40.

Chain of c-Myc370-412-biotin peptide (P01106 385-427): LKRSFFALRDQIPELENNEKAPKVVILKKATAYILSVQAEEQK
Chain of c-Myc and Max (P01106 whole entry): as the sequence (P01106 whole entry) above

For the molecule `CC(C)C[C@H](NC(=O)[C@H](CCC(=O)OC(C)(C)C)NC(=O)OCC1c2ccccc2-c2ccccc21)B1O[C@@H]2C[C@@H]3C[C@@H](C3(C)C)[C@]2(C)O1` [Compound A7], the IC50 with HL60 cells was < 100 nM. Moreover, in [1], the dissociation constant (Kd) was < 100 nM.

`CC(C)C[C@H](NC(=O)[C@H](Cc1c[nH]c2ccccc12)NC(=O)CC1CCCC1)B(O)O` [Compound A69]: the half-inhibitory concentration (IC50) (with HL60 cells; in assay [2]; in [3]; in assay [4]) was < 100 nM in each case.

Take `CC(C)C[C@H](NC(=O)[C@@H](NC(=O)OCC1c2ccccc2-c2ccccc21)[C@@H](C)OC(C)(C)C)B1O[C@@H]2C[C@@H]3C[C@@H](C3(C)C)[C@]2(C)O1` [Compound A2]: in the assay with HL60 cells, the IC50 is < 100 nM. The molecule further displayed a Kd in [1] of 100 to 500 nM.

Turning to `CC(C)C[C@H](NC(=O)[C@H](CCCCNC(=O)OC(C)(C)C)NC(=O)OCC1c2ccccc2-c2ccccc21)B1O[C@@H]2C[C@@H]3C[C@@H](C3(C)C)[C@]2(C)O1` [Compound A13], the concentration for half-maximal inhibition (IC50) in the assay on HL60 cells is < 100 nM. Also, the “competition for the binding of c-Myc and Max” value on c-Myc and Max is “can compete for the binding of c-Myc and Max”. Also, the “degradation of c-Myc protein” value at c-Myc protein is recorded as “promote the degradation of c-Myc protein”. Also, in assay [5], the “selective inhibition of tumor cells with high expression of c-Myc” value is given as “selectively inhibits tumor cells with high expression of c-Myc”.

`CC(C)C[C@H](NC(=O)[C@H](CC(C)C)NC(=O)OCC1c2ccccc2-c2ccccc21)B1O[C@@H]2C[C@@H]3C[C@@H](C3(C)C)[C@]2(C)O1` [Compound A10]: the IC50 (with HL60 cells; in [2]; in assay [3]; in [4]) was < 100 nM throughout.

For the molecule `CC(C)C[C@H](NC(=O)[C@H](CC(C)C)NC(=O)CC1c2ccccc2-c2ccccc21)B(O)O` [Compound A67], the IC50 (in the assay with HL60 cells; in assay [2]; in assay [3]; in assay [4]) was < 100 nM throughout.

As to `CC(C)C[C@H](NC(=O)[C@H](CCC(=O)NC(c1ccccc1)(c1ccccc1)c1ccccc1)NC(=O)OCC1c2ccccc2-c2ccccc21)B1O[C@@H]2C[C@@H]3C[C@@H](C3(C)C)[C@]2(C)O1` [Compound A6], the IC50 in the assay on HL60 cells is < 100 nM. For the same molecule, the Kd in assay [1] was < 100 nM.

For the molecule `CSCC[C@H](NC(=O)OCC1c2ccccc2-c2ccccc21)C(=O)N[C@@H](CC(C)C)B1O[C@@H]2C[C@@H]3C[C@@H](C3(C)C)[C@]2(C)O1` [Compound A5], in the assay with HL60 cells, the IC50 is < 100 nM. Moreover, the “binding (single-cycle binding kinetic curve)” value in assay [6] is “no obvious binding”. Moreover, the Kd in [1] is 100 to 500 nM; on c-Myc peptide LE40 it was 160 nM. Besides, the “degradation of c-Myc protein” value on c-Myc protein was “promote the degradation of c-Myc protein”.

As to `CC(C)C[C@H](NC(=O)[C@H](CSC(c1ccccc1)(c1ccccc1)c1ccccc1)NC(=O)OCC1c2ccccc2-c2ccccc21)B1O[C@@H]2C[C@@H]3C[C@@H](C3(C)C)[C@]2(C)O1` [Compound A3], in the assay on HL60 cells, the IC50 lay in the range of 500 to 2000 nM. The molecule also showed a dissociation constant Kd in [1] of 100 to 500 nM.

`CC(C)C[C@H](NC(=O)[C@H](Cc1cn(C(c2ccccc2)(c2ccccc2)c2ccccc2)cn1)NC(=O)OCC1c2ccccc2-c2ccccc21)B1O[C@@H]2C[C@@H]3C[C@@H](C3(C)C)[C@]2(C)O1` [Compound A4]: the 50% inhibitory concentration (IC50) in the assay on HL60 cells was < 100 nM. Also, the Kd in assay [1] is < 100 nM.

For `CC(C)C[C@H](NC(=O)[C@H](CC(N)=O)NC(=O)CC1c2ccccc2-c2ccccc21)B(O)O` [Compound A81], the IC50 in the assay with HL60 cells was 100 to 500 nM.

A word on the IC50: it is the midpoint of a concentration-inhibition curve. What is called Kd is a measure of binding affinity in units of concentration. Higher therefore signals weaker binding.
